Source: patent US10913727B2, “Modulators of the integrated stress pathway” (Calico Life Sciences LLC, priority 2016, dated 2021)

Test system: HEK293T cells carrying the ATF4 luciferase reporter
Assay: ATF4-Luc assay, in vitro model of Vanishing Cell White Matter Disease (VWMD)
Assay type: cell-based
Details: Homo sapiens, HEK-293T, 1 μg/mL tunicamycin, 7 hours, One Glo luminescence
Summary of the method: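 Stable HEK293T line with human ATF4 5′-UTR–firefly luciferase reporter treated with 1 μg/mL tunicamycin plus 200 nM compound for 7 h. Luminescence read; EC50 derived.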

O=C(COc1ccc(Cl)c(F)c1)NC12CC(NC(=O)c3ccc4ncsc4c3)(C1)C2 [Compound 773, N-{3-[2-(4-chloro-3-fluorophenoxy)acetamido]bicyclo[1.1.1]pentan-1-yl}-1,3-benzothiazole-6-carboxamide]
EC50: > 2000 nM

O=C(COc1ccc(Cl)c(F)c1)NC12CCC(NC(=O)c3cccc(F)c3)(CC1)C[C@@H]2O [Compound 681, N-{(3S)-4-[2-(4-chloro-3-fluorophenoxy)acetamido]-3-hydroxybicyclo[2.2.2]octan-1-yl}-3-fluorobenzamide]
EC50: < 50 nM

O=C(COc1ccc(Cl)c(F)c1)NC12CC(Nc3nc4cc(Cl)ccc4o3)(C1)C2 [Compound 369, N-{3-[(5-chloro-1,3-benzoxazol-2-yl)amino]bicyclo[1.1.1]pentan-1-yl}-2-(4-chloro-3-fluorophenoxy)acetamide]
EC50: 1000 to 2000 nM

O=C(COc1ccc2c(c1)OC(F)(F)O2)NC12CC(NC(=O)c3ccc(OC(F)(F)F)nc3)(C1)C2 [Compound 379, N-(3-{2-[(2,2-difluoro-2H-1,3-benzodioxol-5-yl)oxy]acetamido}bicyclo[1.1.1]pentan-1-yl)-6-(trifluoromethoxy)pyridine-3-carboxamide]
EC50: 50 to 250 nM

O=C(COc1ccc(Cl)c(F)c1)NC12CC(Nc3cncc(C4CC4)n3)(C1)C2 [Compound 714, 2-(4-chloro-3-fluorophenoxy)-N-{3-[(6-cyclopropylpyrazin-2-yl)amino]bicyclo[1.1.1]pentan-1-yl}acetamide]
EC50: 250 to 1000 nM

CC(=O)NCc1ccnc(C(=O)NC23CC(NC(=O)COc4ccc(Cl)c(F)c4)(C2)C3)c1 [Compound 194, 4-(acetamidomethyl)-N-{3-[2-(4-chloro-3-fluorophenoxy)acetamido]bicyclo[1.1.1]pentan-1-yl}pyridine-2-carboxamide]
EC50: 50 to 250 nM

CCc1cc(C(=O)NC23CC(NC(=O)COc4ccc(Cl)c(F)c4)(C2)C3)no1 [Compound 247, N-{3-[2-(4-chloro-3-fluorophenoxy)acetamido]bicyclo[1.1.1]pentan-1-yl}-5-ethyl-1,2-oxazole-3-carboxamide]
EC50: 250 to 1000 nM

Cc1ncc(C(=O)NC23CC(NC(=O)COc4ccc(Cl)c(F)c4)(C2)C3)s1 [Compound 285, N-{3-[2-(4-chloro-3-fluorophenoxy)acetamido]bicyclo[1.1.1]pentan-1-yl}-2-methyl-1,3-thiazole-5-carboxamide]
EC50: 50 to 250 nM

Cc1cc(C(=O)NC23CC(NC(=O)COc4ccc(Cl)c(F)c4)(C2)C3)c(C)n1C1CC1 [Compound 842, N-{3-[2-(4-chloro-3-fluorophenoxy)acetamido]bicyclo[1.1.1]pentan-1-yl}-1-cyclopropyl-2,5-dimethyl-1H-pyrrole-3-carboxamide]
EC50: > 2000 nM

CCOc1ccc(C(=O)NC23CC(NC(=O)COc4ccc(Cl)c(F)c4)(C2)C3)cc1 [Compound 351, N-{3-[2-(4-chloro-3-fluorophenoxy)acetamido]bicyclo[1.1.1]pentan-1-yl}-4-ethoxybenzamide]
EC50: 50 to 250 nM

CN(C)Cc1cccc(C(=O)NC23CC(NC(=O)COc4ccc(Cl)c(F)c4)(C2)C3)c1 [Compound 553, N-{3-[2-(4-chloro-3-fluorophenoxy)acetamido]bicyclo[1.1.1]pentan-1-yl}-3-[(dimethylamino)methyl]benzamide]
EC50: > 2000 nM

CC(C)c1cccc(C(=O)NC23CCC(NC(=O)COc4ccc(Cl)c(F)c4)(CC2)C(O)C3)n1 (stereo not drawn) [Compound 911, N-{4-[2-(4-chloro-3-fluorophenoxy)acetamido]-3-hydroxybicyclo[2.2.2]octan-1-yl}-6-(propan-2-yl)pyridine-2-carboxamide]
EC50: 250 to 1000 nM

O=C(COc1ccc(Cl)c(F)c1)NC12CC(NC(=O)c3cc(N4CCOCC4)ccn3)(C1)C2 [Compound 180, N-{3-[2-(4-chloro-3-fluorophenoxy)acetamido]bicyclo[1.1.1]pentan-1-yl}-4-(morpholin-4-yl)pyridine-2-carboxamide]
EC50: 1000 to 2000 nM

Cc1cnc(C(=O)NC23CCC(NC(=O)COc4ccc(Cl)c(F)c4)(CC2)CC3O)cn1 (stereo not drawn) [Compound 220, N-{4-[2-(4-chloro-3-fluorophenoxy)acetamido]-2-hydroxybicyclo[2.2.2]octan-1-yl}-5-methylpyrazine-2-carboxamide]
EC50: 50 to 250 nM

O=C(COc1ccc(Cl)c(F)c1)NC12CC(NC(=O)c3cc4cccnc4s3)(C1)C2 [Compound 798, N-{3-[2-(4-chloro-3-fluorophenoxy)acetamido]bicyclo[1.1.1]pentan-1-yl}thieno[2,3-b]pyridine-2-carboxamide]
EC50: > 2000 nM

Cc1cc(C(=O)NC23CCC(NC(=O)COc4ccc(Cl)c(F)c4)(CC2)C(O)C3)oc1C (stereo not drawn) [Compound 474, N-{4-[2-(4-chloro-3-fluorophenoxy)acetamido]-3-hydroxybicyclo[2.2.2]octan-1-yl}-4,5-dimethylfuran-2-carboxamide]
EC50: 50 to 250 nM

O=C(COc1ccc(Cl)c(F)c1)NC12CCC(NC(=O)c3cc(C(F)(F)F)ccn3)(CC1)CC2O (stereo not drawn) [Compound 933, N-{4-[2-(4-chloro-3-fluorophenoxy)acetamido]-3-hydroxybicyclo[2.2.2]octan-1-yl}-4-(trifluoromethyl)pyridine-2-carboxamide]
EC50: 50 to 250 nM

O=C(COc1ccc(Cl)c(F)c1)NC12CC(NC(=O)c3ccc4[nH]c(=O)[nH]c4n3)(C1)C2 [Compound 205, N-{3-[2-(4-chloro-3-fluorophenoxy)acetamido]bicyclo[1.1.1]pentan-1-yl}-2-oxo-2,3-dihydro-1H-imidazo[4,5-b]pyridine-5-carboxamide]
EC50: > 2000 nM

O=C(COc1ccc(Cl)c(F)c1)NC12CC(NC(=O)c3coc(C4CC4)n3)(C1)C2 [Compound 248, N-{3-[2-(4-chloro-3-fluorophenoxy)acetamido]bicyclo[1.1.1]pentan-1-yl}-2-cyclopropyl-1,3-oxazole-4-carboxamide]
EC50: 50 to 250 nM

Cc1nc(C(=O)NC23CCC(NC(=O)COc4ccc(Cl)c(Cl)c4)(CC2)[C@@H](O)C3)cs1 [Compound 701, N-{(3S)-4-[2-(3,4-dichlorophenoxy)acetamido]-3-hydroxybicyclo[2.2.2]octan-1-yl}-2-methyl-1,3-thiazole-4-carboxamide]
EC50: 50 to 250 nM

Cc1nn(C)cc1C(=O)NC12CC(NC(=O)COc3ccc(Cl)c(F)c3)(C1)C2 [Compound 846, N-{3-[2-(4-chloro-3-fluorophenoxy)acetamido]bicyclo[1.1.1]pentan-1-yl}-1,3-dimethyl-1H-pyrazole-4-carboxamide]
EC50: 1000 to 2000 nM

Cc1ccc2nc(C(=O)NC34CC(NC(=O)COc5ccc(Cl)c(F)c5)(C3)C4)cn2c1 [Compound 787, N-{3-[2-(4-chloro-3-fluorophenoxy)acetamido]bicyclo[1.1.1]pentan-1-yl}-6-methylimidazo[1,2-a]pyridine-2-carboxamide]
EC50: > 2000 nM

O=C(COc1ccc(Cl)c(F)c1)NC12CC(NC(=O)c3cnc4cccnn34)(C1)C2 [Compound 760, N-{3-[2-(4-chloro-3-fluorophenoxy)acetamido]bicyclo[1.1.1]pentan-1-yl}imidazo[1,2-b]pyridazine-3-carboxamide]
EC50: > 2000 nM

Cc1cnc(C(=O)NC23CCC(NC(=O)COc4ccc5c(c4)OC(F)(F)O5)(CC2)[C@@H](O)C3)cn1 [Compound 638, N-[(3S)-4-{2-[(2,2-difluoro-2H-1,3-benzodioxol-5-yl)oxy]acetamido}-3-hydroxybicyclo[2.2.2]octan-1-yl]-5-methylpyrazine-2-carboxamide]
EC50: 250 to 1000 nM

O=C(COc1ccc(Cl)c(F)c1)NC12CCC(Nc3cnc(C(F)(F)F)cn3)(CC1)CC2 [Compound 100, 2-(4-chloro-3-fluorophenoxy)-N-(4-{[5-(trifluoromethyl)pyrazin-2-yl]amino}bicyclo[2.2.2]octan-1-yl)acetamide]
EC50: 250 to 1000 nM

O=C(COc1ccc(Cl)c(F)c1)NC12CC(NC(=O)c3ccc(C(F)F)cc3)(C1)C2 [Compound 191, N-{3-[2-(4-chloro-3-fluorophenoxy)acetamido]bicyclo[1.1.1]pentan-1-yl}-4-(difluoromethyl)benzamide]
EC50: 50 to 250 nM

O=C(COc1ccc(Cl)c(F)c1)NC12CC(NC(=O)c3ccc(C4CC4)cn3)(C1)C2 [Compound 143, N-{3-[2-(4-chloro-3-fluorophenoxy)acetamido]bicyclo[1.1.1]pentan-1-yl}-5-cyclopropylpyridine-2-carboxamide]
EC50: 50 to 250 nM

Cc1cnc(C(=O)NC23CC(NC(=O)COc4ccc(Cl)c(F)c4)(C2)C3)cn1 [Compound 114, N-{3-[2-(4-chloro-3-fluorophenoxy)acetamido]bicyclo[1.1.1]pentan-1-yl}-5-methylpyrazine-2-carboxamide]
EC50: 50 to 250 nM

O=C(COc1ccc(Cl)c(F)c1)NC12CC(NC(=O)c3cnc4ncccc4n3)(C1)C2 [Compound 864, N-{3-[2-(4-chloro-3-fluorophenoxy)acetamido]bicyclo[1.1.1]pentan-1-yl}pyrido[2,3-b]pyrazine-2-carboxamide]
EC50: > 2000 nM

COc1cc(C(=O)NC23CC(NC(=O)COc4ccc(Cl)c(F)c4)(C2)C3)c(OC)nn1 [Compound 788, N-{3-[2-(4-chloro-3-fluorophenoxy)acetamido]bicyclo[1.1.1]pentan-1-yl}-3,6-dimethoxypyridazine-4-carboxamide]
EC50: > 2000 nM

Cc1ccnc(C(=O)NC23CC(NC(=O)COc4ccc(Cl)c(F)c4)(C2)C3)c1 [Compound 525, N-{3-[2-(4-chloro-3-fluorophenoxy)acetamido]bicyclo[1.1.1]pentan-1-yl}-4-methylpyridine-2-carboxamide]
EC50: 250 to 1000 nM

O=C(COc1ccc(Cl)cc1)NC12CC(Nc3noc(-c4ccc(Cl)cc4)n3)(C1)C2 [Compound 287, 2-(4-chlorophenoxy)-N-(3-{[5-(4-chlorophenyl)-1,2,4-oxadiazol-3-yl]amino}bicyclo[1.1.1]pentan-1-yl)acetamide]
EC50: 50 to 250 nM

COc1ccc(C(=O)NC23CC(NC(=O)COc4ccc(Cl)c(F)c4)(C2)C3)cc1 [Compound 533, N-{3-[2-(4-chloro-3-fluorophenoxy)acetamido]bicyclo[1.1.1]pentan-1-yl}-4-methoxybenzamide]
EC50: 50 to 250 nM
